This is an account of results in patent US20250099609A1 (priority 2023, published 2025).

The test system of one series is osteoclasts. The experiment in a line: Osteoclast maturation (DAPI/Phalloidin staining). In kind it is cell-based. Particulars: without radiation. As for the experimental part: This treatment was carried out without exposing the osteoclasts to radiation.
Series [1] deals with stem cells. Briefly: Stem cell conversion to fat cells after radiation. Particulars: after exposure to radiation (IR 21d). In kind it is cell-based. The protocol:
All treatment was administered with radiation (IR 21d).
Radiation exposure, post-menopausal osteoporosis, and diabetes are conditions that cause stem cells to favor conversion to fat cells instead of conversion to bone cells. This process progresses to tissue dysfunction. Stem cells were treated with P7C3 or with cerium oxide nanoparticles (CNPs) after exposure to radiation. […] All treatment was administered with radiation (IR 21d).

The subject of series [2] is stem cells. Briefly: Bone mineral formation / new bone deposition after radiation (Alizarin red). The settings on record: 14 days of culture; treatment 24 h or 48 h after radiation (7 Gy). Type of series: cell-based. The protocol: Radiation reduces the ability of bone cells to produce bone. […] This is further confirmed when the cells are cultured over a longer period of 28 days.
The data showing assessed bone formation was supported by quantification of new bone deposition.
(**** p<0.000) The synergistic effect continues when treatment is administered more than 24 hours after radiation exposure.

The subject of another series is mesenchymal stem cells. Briefly: Alkaline phosphatase (ALP) assay after radiation. In kind it is cell-based. The settings on record: treatment 24 h or 48 h after ionizing radiation. The source says:
FIGS. 6A-B show results of an alkaline phosphatase (ALP) assay. The micrographs show assessed bone formation after treatment with P7C3, with cerium oxide nanoparticles (CNPs), or with a combination of P7C3 and CNPs.

Series [3] relates to primary and metastatic cancer cell. The experiment in a line: Primary and metastatic cancer cell growth. In kind it is cell-based. The settings on record: at therapeutic levels. The source says: This invention combines these two unique approaches as a bi-modal and multifunctional chimeric nanostrategy to combat against ionizing radiation-induced damage.
Series [4] relates to post-menopausal osteoporosis. Briefly: Post-menopausal osteoporosis in animals. Type of series: in vivo. The source says:
The above embodiments also relate to the field of medicine for an article of manufacture delivering a prophylactic and therapeutic tissue strategy for osteoporosis. The remarkable increase in average life expectancy during the 20th century ranks as one of society's greatest achievements. As a result, the world's elderly population (aged ≥65 years) continues to grow at an unprecedented rate. As the proportion of the oldest-old (aged >85 years) and length of life expectancy increases, a rise in age-related degenerating diseases, disability, and prolonged dependency is projected. Age-related bone loss and osteoporosis is inevitable in both men and women, and can lead to fragility fractures, immobility, and disability. Currently, bisphosphonate treatment and weight-bearing exercise are commonly used therapeutic approaches, but both with limited long-term success.

For series [5] the following is noted: in vivo; cited from earlier work.
In another series the test system is bone. Particulars: literature refs 15 and 19; cited from earlier work.

Turning to `OC(CNc1ccccc1)Cn1c2ccc(Br)cc2c2cc(Br)ccc21` (centres unmarked) [P7C3, aminopropyl carbazole], the maturation of osteoclasts entry in the series with osteoclasts is recorded as “stops the maturation of osteoclasts”. Further, the “fat formation from stem cells” value in the series on stem cells [1] is reported as “inhibit fat formation”. In addition, the “new bone deposition (micrographs)” value in the series with stem cells [2] was “does not substantially increase new bone deposition”. In addition, the “alkaline phosphatase expression / conversion of stem cells to osteoblasts” value in the series with mesenchymal stem cells is reported as “limited upregulation”. The “primary and metastatic cancer cell growth” value in series [3] is reported as “significantly reduces”. Also, the “progression of post-menopausal osteoporosis” value in series [4] is on record as “reduces the progression”. Also, the oral bioavailability result in series [5] is on record as “high oral bioavailability”. Further, the “countermeasure against ionizing radiation-induced bone damage and/or bone loss” value with bone is “effective countermeasure”.
